According to PubChem BioAssay AID248 (DTP/NCI, 2004):
Where “and” joins values, the source holds several entries; their conditions need not be identical. Equal entries are not always repeated. Toxic doses and inconclusive results are not listed.

System: L1210 leukemia ip in BDF1 mice, survival T/C
Experiment: NCI In Vivo Anticancer Drug Screen. Data for tumor model L1210 Leukemia (intraperitoneal) in B6D2F1 (BDF1) mice
Settings: endpoint: mean survival time, higher = longer survival
How it was run: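 Value reflects the ratio of survival in compound-treated mice to survival in vehicle-treated controls, with both groups carrying the same transplanted tumor.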

[1] = dose: 100.0 mg/kg/injection, schedule: Q01DX001 (ip), vehicle: carboxymethylcellulose (CMC)
[2] = dose: 200.0 mg/kg/injection, schedule: Q01DX001 (ip), vehicle: carboxymethylcellulose (CMC)
[3] = dose: 400.0 mg/kg/injection, schedule: Q01DX001 (ip), vehicle: carboxymethylcellulose (CMC)
[4] = dose: 25.0 mg/kg/injection, schedule: Q01DX009 (ip), vehicle: saline with Tween-80
[5] = dose: 50.0 mg/kg/injection, schedule: Q01DX009 (ip), vehicle: saline with Tween-80
[6] = dose: 100.0 mg/kg/injection, schedule: Q04DX003 (ip), vehicle: saline with Tween-80
[7] = dose: 200.0 mg/kg/injection, schedule: Q04DX003 (ip), vehicle: saline with Tween-80
[8] = dose: 400.0 mg/kg/injection, schedule: Q04DX003 (ip), vehicle: saline with Tween-80
[9] = dose: 100.0 mg/kg/injection, schedule: Q01DX001 (ip), vehicle: saline
[10] = dose: 200.0 mg/kg/injection, schedule: Q01DX001 (ip), vehicle: saline
[11] = dose: 400.0 mg/kg/injection, schedule: Q01DX001 (ip), vehicle: saline
[12] = dose: 100.0 mg/kg/injection, schedule: Q04DX003 (ip), vehicle: Klucel (hydroxypropylcellulose) (HPC)
[13] = dose: 200.0 mg/kg/injection, schedule: Q04DX003 (ip), vehicle: Klucel (hydroxypropylcellulose) (HPC)
[14] = dose: 400.0 mg/kg/injection, schedule: Q04DX003 (ip), vehicle: Klucel (hydroxypropylcellulose) (HPC)
[15] = dose: 100.0 mg/kg/injection, schedule: Q01DX001 (ip), vehicle: Klucel (hydroxypropylcellulose) (HPC)
[16] = dose: 200.0 mg/kg/injection, schedule: Q01DX001 (ip), vehicle: Klucel (hydroxypropylcellulose) (HPC)
[17] = dose: 400.0 mg/kg/injection, schedule: Q01DX001 (ip), vehicle: Klucel (hydroxypropylcellulose) (HPC)
[18] = dose: 100.0 mg/kg/injection, schedule: Q01DX009 (ip), vehicle: Klucel (hydroxypropylcellulose) (HPC)
[19] = dose: 100.0 mg/kg/injection, schedule: Q04DX002 (ip), vehicle: Klucel (hydroxypropylcellulose) (HPC)
[20] = dose: 200.0 mg/kg/injection, schedule: Q04DX002 (ip), vehicle: Klucel (hydroxypropylcellulose) (HPC)
[21] = dose: 100.0 mg/kg/injection, schedule: Q01DX009 (ip), vehicle: saline with Tween-80
[22] = dose: 100.0 mg/kg/injection, schedule: Q04DX002 (ip), vehicle: saline with Tween-80
[23] = dose: 200.0 mg/kg/injection, schedule: Q01DX009 (ip), vehicle: saline with Tween-80
[24] = dose: 200.0 mg/kg/injection, schedule: Q04DX002 (ip), vehicle: saline with Tween-80
[25] = dose: 400.0 mg/kg/injection, schedule: Q01DX009 (ip), vehicle: saline with Tween-80
[26] = dose: 400.0 mg/kg/injection, schedule: Q04DX002 (ip), vehicle: saline with Tween-80
[27] = dose: 50.0 mg/kg/injection, schedule: Q04DX002 (ip), vehicle: Klucel (hydroxypropylcellulose) (HPC)

Compound: CCOC(=O)C(CC1OCCO1)C1=NC(C)(C)CC(C)O1 (stereo unspecified)
- T/C (dose: 100.0 mg/kg/injection, schedule: Q01DX009 (ip), vehicle: saline): 96 % of control
- T/C (dose: 100.0 mg/kg/injection, schedule: Q04DX003 (ip), vehicle: saline): 106 % of control
- T/C (dose: 200.0 mg/kg/injection, schedule: Q01DX009 (ip), vehicle: saline): 100 % of control
- T/C (dose: 200.0 mg/kg/injection, schedule: Q04DX003 (ip), vehicle: saline): 92 % of control
- T/C (dose: 400.0 mg/kg/injection, schedule: Q01DX009 (ip), vehicle: saline): 96 % of control
- T/C (dose: 400.0 mg/kg/injection, schedule: Q04DX003 (ip), vehicle: saline): 92 % of control

Compound: NNc1cc(=O)n2ccccc2n1
- T/C [1]: 98 % of control
- T/C [2]: 98 % of control
- T/C [3]: 101 % of control

Compound: C=CCCCCCCCCC(N)=O
- T/C [4]: 108 % of control
- T/C [5]: 96 % of control
- T/C [6]: 101 % of control
- T/C [7]: 95 % of control
- T/C [8]: 184 % of control

Compound: Cc1ccc([N+](=O)[O-])cc1CN(CCO)CCO
- T/C [9]: 101 % of control
- T/C [10]: 95 % of control
- T/C [11]: 98 % of control

Compound: O=C(Nc1ccc(F)cc1)Nc1cc([N+](=O)[O-])ccc1F
- T/C [12]: 117 % of control
- T/C [13]: 102 % of control
- T/C [14]: 101 % of control

Compound: CCCCCCCCCCCCCC(=O)OC1CCC2(C)C(=CCC3C2CCC2(C)C(C(C)CCCC(C)C)CCC32)C1 (stereo unspecified)
- T/C (dose: 50.0 mg/kg/injection, schedule: Q01DX001 (ip), vehicle: Klucel (hydroxypropylcellulose) (HPC)): 96 % of control
- T/C [15]: 89 % of control
- T/C [16]: 87 % of control and 89 % of control
- T/C [17]: 87 % of control

Compound: CC#CC#Cc1cccc(=O)o1
- T/C (dose: 25.0 mg/kg/injection, schedule: Q04DX003 (ip), vehicle: other): 90 % of control
- T/C (dose: 50.0 mg/kg/injection, schedule: Q04DX003 (ip), vehicle: other): 90 % of control
- T/C (dose: 100.0 mg/kg/injection, schedule: Q04DX003 (ip), vehicle: other): 108 % of control

Compound: CCCCCCCCCCCCSC1=CC(=O)C=CC1=O
- T/C (dose: 5.0 mg/kg/injection, schedule: Q01DX001 (ip), vehicle: saline): 101 % of control
- T/C (dose: 10.0 mg/kg/injection, schedule: Q01DX001 (ip), vehicle: saline): 108 % of control
- T/C (dose: 20.0 mg/kg/injection, schedule: Q01DX001 (ip), vehicle: saline): 97 % of control
- T/C (dose: 40.0 mg/kg/injection, schedule: Q01DX001 (ip), vehicle: saline): 112 % of control
- T/C (dose: 80.0 mg/kg/injection, schedule: Q01DX001 (ip), vehicle: saline): 112 % of control

Compound: CCCCCCCCCC(N)=O
- T/C (dose: 50.0 mg/kg/injection, schedule: Q01DX009 (ip), vehicle: Klucel (hydroxypropylcellulose) (HPC)): 97 % of control
- T/C [15]: 110 % of control
- T/C [18]: 90 % of control
- T/C [16]: 100 % of control
- T/C [17]: 93 % of control

Compound: O=[N+]([O-])c1ccn(O)c(=Nc2ccccc2)c1
- T/C [9]: 108 % of control
- T/C [10]: 104 % of control
- T/C [11]: 100 % of control

Compound: O=C(N=Nc1c(O)[nH]c2ccccc12)c1ccccc1[N+](=O)[O-]
- T/C [1]: 87 % of control
- T/C [2]: 90 % of control
- T/C [3]: 96 % of control

Compound: O=CCSC(=S)NNc1ccccc1
- T/C [18]: 106 % of control
- T/C [12]: 88 % of control
- T/C (dose: 200.0 mg/kg/injection, schedule: Q01DX009 (ip), vehicle: Klucel (hydroxypropylcellulose) (HPC)): 95 % of control
- T/C [13]: 91 % of control
- T/C [14]: 96 % of control

Compound: OC(/N=C/c1ccccc1)C(Cl)(Cl)Cl (stereo unspecified)
- T/C [19]: 103 % of control
- T/C [20]: 88 % of control
- T/C (dose: 400.0 mg/kg/injection, schedule: Q04DX002 (ip), vehicle: Klucel (hydroxypropylcellulose) (HPC)): 114 % of control

Compound: COC(=O)c1ccccc1NC(=S)NC(=O)c1ccc(Cl)cc1Cl
- T/C (dose: 100.0 mg/kg/injection, schedule: Q01DX001 (ip), vehicle: saline with Tween-80): 92 % of control
- T/C [21]: 97 % of control and 102 % of control
- T/C [22]: 101 % of control and 88 % of control
- T/C [6]: 87 % of control
- T/C (dose: 200.0 mg/kg/injection, schedule: Q01DX001 (ip), vehicle: saline with Tween-80): 92 % of control
- T/C [23]: 95 % of control and 97 % of control
- T/C [24]: 103 % of control and 92 % of control
- T/C [7]: 90 % of control
- T/C (dose: 400.0 mg/kg/injection, schedule: Q01DX001 (ip), vehicle: saline with Tween-80): 89 % of control
- T/C [25]: 97 % of control and 98 % of control
- T/C [26]: 106 % of control and 88 % of control
- T/C [8]: 92 % of control

Compound: Cc1nc(C(N)=O)c2nc3c4ccccc4c4ccccc4c3nn12
- T/C (dose: 25.0 mg/kg/injection, schedule: Q04DX002 (ip), vehicle: saline with Tween-80): 94 % of control
- T/C (dose: 50.0 mg/kg/injection, schedule: Q04DX002 (ip), vehicle: saline with Tween-80): 91 % of control
- T/C [22]: 87 % of control
- T/C [24]: 89 % of control
- T/C [26]: 92 % of control

Compound: NC(=O)C1C2C=CC(C2)C1C(N)=O (stereo unspecified)
- T/C [6]: 96 % of control
- T/C [7]: 91 % of control
- T/C [8]: 98 % of control

Compound: O=C1N=C(C(F)(F)F)N=C1c1[nH]c(C(F)(F)F)nc1O
- T/C [21]: 95 % of control
- T/C [6]: 104 % of control
- T/C [23]: 98 % of control
- T/C [7]: 100 % of control
- T/C [25]: 102 % of control
- T/C [8]: 105 % of control

Compound: [Cl][Fe]([Cl])([Cl])[Cl].c1ccc(-c2cc(-c3ccccc3)[o+]c(-c3ccccc3)c2)cc1
- T/C [4]: 87 % of control
- T/C [5]: 88 % of control
- T/C [21]: 90 % of control

Compound: O=Cc1c(Cl)[nH]c2ccccc12
- T/C [27]: 90 % of control
- T/C [19]: 93 % of control
- T/C [20]: 101 % of control

Compound: C(/C=C\c1ccccc1)=Nc1ccccc1
- T/C [6]: 95 % of control
- T/C [7]: 95 % of control
- T/C [8]: 92 % of control

Compound: CC(=O)C1(O)CCC2C3CC(C)C4=CC(=O)C=CC4(C)C3C(O)CC21C (stereo unspecified)
- T/C (dose: 12.5 mg/kg/injection, schedule: Q04DX002 (ip), vehicle: Klucel (hydroxypropylcellulose) (HPC)): 97 % of control
- T/C (dose: 25.0 mg/kg/injection, schedule: Q04DX002 (ip), vehicle: Klucel (hydroxypropylcellulose) (HPC)): 97 % of control
- T/C [27]: 90 % of control

Compound: CCC1OC2(C)CCCC1O2 (stereo unspecified)
- T/C (dose: 25.0 mg/kg/injection, schedule: Q01DX001 (ip), vehicle: saline sonified): 111 % of control
- T/C (dose: 50.0 mg/kg/injection, schedule: Q01DX001 (ip), vehicle: saline sonified): 101 % of control
- T/C (dose: 100.0 mg/kg/injection, schedule: Q01DX001 (ip), vehicle: saline sonified): 122 % of control

Compound: O=[As](O)(c1cccc(Cl)c1)c1cccc(Cl)c1
- T/C (dose: 75.0 mg/kg/injection, schedule: Q01DX001 (ip), vehicle: saline): 105 % of control

Compound: O=S(=O)(O)Nc1cccc(Cl)c1
- T/C [22]: 100 % of control
- T/C [24]: 111 % of control
- T/C [26]: 88 % of control

Compound: NC(N)=Nc1ccc(C(=O)O)cc1
- T/C [21]: 107 % of control
- T/C [23]: 103 % of control

Compound: O=C(O)c1ccccc1SCc1cc(=O)[nH]c(=O)[nH]1
- T/C [6]: 102 % of control
- T/C [7]: 102 % of control
- T/C [8]: 98 % of control
